Values of other authors as cited in patent US11857530B2, “Cannabinoid formulations” (Endocanna Health, Inc., priority 2017, dated 2024).

Tests used:
CYP3A4 = CYP3A4 (Homo sapiens, UniProt P08684); settings: after oromucosal dosing; for boost of THC and CBD levels by ketoconazole: co-administered CYP3A4 inhibitor ketoconazole; for boost of THC and CBD levels by the CYP3A4 inhibitor ketoconazole: clinical studies, co-administered ketoconazole
ABCB1 = ABCB1 (Homo sapiens, UniProt P08183)
Sequence of ABCB1 (P08183 whole entry): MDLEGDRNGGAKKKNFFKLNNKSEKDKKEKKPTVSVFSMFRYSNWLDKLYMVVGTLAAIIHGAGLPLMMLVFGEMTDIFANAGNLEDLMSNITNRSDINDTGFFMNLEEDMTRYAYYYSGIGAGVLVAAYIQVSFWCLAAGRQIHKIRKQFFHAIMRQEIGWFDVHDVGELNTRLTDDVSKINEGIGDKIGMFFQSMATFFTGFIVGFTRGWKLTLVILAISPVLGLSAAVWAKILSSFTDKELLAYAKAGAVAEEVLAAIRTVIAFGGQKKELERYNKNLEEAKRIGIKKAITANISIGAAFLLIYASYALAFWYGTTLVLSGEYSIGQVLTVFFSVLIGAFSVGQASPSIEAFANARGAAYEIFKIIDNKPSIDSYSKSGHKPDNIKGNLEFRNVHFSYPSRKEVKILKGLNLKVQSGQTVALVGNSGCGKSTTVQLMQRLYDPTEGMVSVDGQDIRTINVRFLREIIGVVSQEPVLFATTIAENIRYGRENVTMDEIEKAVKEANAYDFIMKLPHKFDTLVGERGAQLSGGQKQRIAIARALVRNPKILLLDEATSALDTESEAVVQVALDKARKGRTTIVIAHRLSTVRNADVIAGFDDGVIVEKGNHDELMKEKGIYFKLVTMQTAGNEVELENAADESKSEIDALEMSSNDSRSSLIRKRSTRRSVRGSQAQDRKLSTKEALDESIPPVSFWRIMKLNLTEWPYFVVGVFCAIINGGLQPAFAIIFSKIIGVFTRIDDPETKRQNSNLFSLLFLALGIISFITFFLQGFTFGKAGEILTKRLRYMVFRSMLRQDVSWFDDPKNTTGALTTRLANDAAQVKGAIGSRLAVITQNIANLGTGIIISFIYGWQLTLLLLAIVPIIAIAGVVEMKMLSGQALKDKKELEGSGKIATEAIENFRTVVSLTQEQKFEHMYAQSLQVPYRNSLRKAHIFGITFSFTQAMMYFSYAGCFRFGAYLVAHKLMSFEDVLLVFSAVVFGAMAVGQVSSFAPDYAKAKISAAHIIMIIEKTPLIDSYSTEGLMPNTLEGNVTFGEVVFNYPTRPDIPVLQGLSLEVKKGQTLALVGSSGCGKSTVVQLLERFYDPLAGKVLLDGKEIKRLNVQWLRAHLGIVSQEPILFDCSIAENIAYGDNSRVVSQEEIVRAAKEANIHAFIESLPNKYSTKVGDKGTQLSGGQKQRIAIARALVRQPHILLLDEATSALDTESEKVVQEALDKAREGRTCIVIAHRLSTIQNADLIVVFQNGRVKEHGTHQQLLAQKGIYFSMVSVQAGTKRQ

Sequence of CYP3A4 (P08684 whole entry): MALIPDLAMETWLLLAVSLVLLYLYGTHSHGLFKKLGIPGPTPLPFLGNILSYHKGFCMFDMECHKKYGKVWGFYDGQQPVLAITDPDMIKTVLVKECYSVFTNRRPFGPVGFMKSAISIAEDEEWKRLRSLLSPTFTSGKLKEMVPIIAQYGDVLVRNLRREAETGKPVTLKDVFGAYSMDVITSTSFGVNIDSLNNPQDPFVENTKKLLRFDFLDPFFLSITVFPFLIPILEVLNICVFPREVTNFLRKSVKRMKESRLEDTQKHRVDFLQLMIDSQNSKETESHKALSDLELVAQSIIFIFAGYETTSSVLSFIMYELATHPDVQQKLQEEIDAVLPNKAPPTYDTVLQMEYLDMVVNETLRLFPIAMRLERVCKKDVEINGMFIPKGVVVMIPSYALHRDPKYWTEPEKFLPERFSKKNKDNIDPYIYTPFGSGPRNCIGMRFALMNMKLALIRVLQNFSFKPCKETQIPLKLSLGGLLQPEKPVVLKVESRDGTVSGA

Structure (SMILES) | boost of THC and CBD levels by ketoconazole (CYP3A4) | boost of THC and CBD levels by the CYP3A4 inhibitor ketoconazole (CYP3A4) | THC levels, fold lower, Homozygous MINOR Alleles (T/T) (ABCB1; ABCB1 SNIP 2-01-AFMLG, genotype T/T) | blood THC levels after consuming THC (ABCB1; users with homozygous alleles (T/T) at rs1045642 of ABCB1, relative to people with a different genotype)
C=C(C)[C@@H]1CCC(C)=C[C@H]1c1c(O)cc(CCCCC)cc1O [CBD, Cannabidiol] | approximately 2 fold | dosing by approximately 2-fold |  | 
CCCCCc1cc(O)c2c(c1)OC(C)(C)[C@@H]1CCC(C)=C[C@@H]21 [THC, Tetrahydrocannabinol] | approximately 2 fold | dosing by approximately 2-fold | may have 2-fold lower | two-fold lower
